In brackets after ≈: the same amount, converted by molar mass. Where two headings read alike, the source gives them in different places.

What all share (assay type): cell-based
One experiment has as its system M. xenopi (ATCC 19250). Nature of the experiment: MIC against M. xenopi in CAMHB + ADC. The following applies: Mycobacterium xenopi.
In a further experiment the test system is M. kansasii (ATCC 12478). Nature of the experiment: MIC against M. kansasii in CAMHB + ADC. To be noted: Mycobacterium kansasii.
A further experiment deals with M. avium (ATCC 25291). The experiment in a line: MIC against M. avium in CAMHB + ADC. The following applies: Mycobacterium avium.
Experiment [1] concerns A. baumannii (HUMC1 strain). The experiment in a line: MIC by broth microdilution against A. baumannii in RPMI + 10% FCS. To be noted: Acinetobacter baumannii, read-out: MIC A. baumannii.
Experiment [2] concerns S. aureus (UAMS-1625 strain). Nature of the experiment: MIC by broth microdilution against S. aureus. To be noted: Staphylococcus aureus, read-out: MIC S. aureus. (In general: Dilution methods test growth across graded concentrations, often in twofold steps.)
The test system of experiment [3] is M. abscessus subsp. abscessus ATCC 19977. Nature of the experiment: MIC against M. abscessus in Middlebrook 7H9 + ADC. To be noted: Mycobacteroides abscessus.
Where [4] appears, read: ATCC25291, ATCC 25291, CAMHB + ADC (5%), read-out: MIC M. avium.
[5] abbreviates: ATCC19977, ATCC 19977, 7H9 + ADC, read-out: MIC M. abscessus.
[6] abbreviates: ATCC12478, read-out: MIC M. kansasii.

One may read the MIC as the smallest concentration in the dilution series that meets the test's criterion for growth inhibition. For the compound `CO[C@H]1/C=C/O[C@@]2(C)Oc3c(C)c(O)c4c(c3C2=O)C2=NC3(CCN(CC(C)C)CC3)NC2=C(NC(=O)/C(C)=C\C=C\[C@H](C)[C@H](O)[C@@H](C)[C@@H](O)[C@@H](C)[C@H](OC(=O)CC(=O)N2CCC(CCc3ccccc3)CC2)[C@@H]1C)C4=O` [Compound 56], the MIC was found to be 0.06 µg/mL in the experiment on M. xenopi (ATCC 19250) (ATCC19250, ATCC 19250, CAMHB + ADC (5%), read-out: MIC M. xenopi); 0.03 µg/mL with M. kansasii (ATCC 12478) (ATCC12478, ATCC 12478, CAMHB + ADC (5%), read-out: MIC M. kansasii); 0.5 µg/mL with M. avium (ATCC 25291) (setting [4]); 0.03 µg/mL in experiment [1] (HUMC1 strain, RPMI + 10% FCS); 2 µg/mL (≈ 1.88 µM) in experiment [2]; 0.25 µg/mL in experiment [3] (setting [5]).

For the compound `CO[C@H]1/C=C/O[C@@]2(C)Oc3c(C)c(O)c4c(c3C2=O)C2=NC3(CCN(CC(C)C)CC3)NC2=C(NC(=O)/C(C)=C\C=C\[C@H](C)[C@H](O)[C@@H](C)[C@@H](O)[C@@H](C)[C@H](OC(=O)CC(=O)N2CCC(Oc3ccccc3)CC2)[C@@H]1C)C4=O` [Compound 57], the minimal inhibitory concentration (MIC) in the experiment with M. xenopi (ATCC 19250) (ATCC19250, read-out: MIC M. xenopi) came out at 0.03 µg/mL; in the experiment on M. kansasii (ATCC 12478) (setting [6]), 0.008 µg/mL; in the experiment on M. avium (ATCC 25291) (ATCC25291, read-out: MIC M. avium), 0.125 µg/mL; in experiment [1] it was 0.03 µg/mL; in experiment [2], 0.5 µg/mL (≈ 0.476 µM); in experiment [3] (ATCC19977, read-out: MIC M. abscessus) it was 0.125 µg/mL.

Turning to `CO[C@H]1/C=C/O[C@@]2(C)Oc3c(C)c(O)c4c(c3C2=O)C2=NC3(CCN(CC(C)C)CC3)NC2=C(NC(=O)/C(C)=C\C=C\[C@H](C)[C@H](O)[C@@H](C)[C@@H](O)[C@@H](C)[C@H](OC(=O)CCCC(=O)OC2CCN(C)C2)[C@@H]1C)C4=O` (some centres unmarked) [Compound 77], the MIC was not above 0.002 µg/mL in experiment [1] (HUMC1 strain, RPMI + 10% FCS); 0.06 µg/mL (≈ 0.0599 µM) in experiment [2]; 0.5 µg/mL in experiment [3] (setting [5]).

For `CO[C@H]1/C=C/OC2(C)Oc3c(C)c(O)c4c(c3C2=O)C2=NC3(CCN(CC(C)C)CC3)NC2=C(NC(=O)/C(C)=C\C=C\[C@H](C)[C@H](O)[C@@H](C)[C@@H](O)[C@@H](C)[C@H](OC(=O)CC(=O)N2CCn3c2nc2ccccc23)[C@@H]1C)C4=O` (some centres unmarked) [Compound 89], the MIC amounted to 0.016 µg/mL in experiment [1] (HUMC1 strain, RPMI + 10% FCS); 0.125 µg/mL (≈ 0.121 µM) in experiment [2]; 0.5 µg/mL in experiment [3] (setting [5]).

For the compound `CO[C@H]1/C=C/O[C@@]2(C)Oc3c(C)c(O)c4c(c3C2=O)C2=NC3(CCN(CC(C)C)CC3)NC2=C(NC(=O)/C(C)=C\C=C\[C@H](C)[C@H](O)[C@@H](C)[C@@H](O)[C@@H](C)[C@H](OC(=O)CC(=O)N2CCN(C3CN(C)C3)CC2)[C@@H]1C)C4=O` [Compound 111], the minimum inhibitory concentration (MIC) came to 0.06 µg/mL in experiment [1] (HUMC1 strain, RPMI + 10% FCS); 0.125 µg/mL (≈ 0.122 µM) in experiment [2]; 0.5 µg/mL in experiment [3] (setting [5]).

Take `CO[C@H]1/C=C/O[C@@]2(C)Oc3c(C)c(O)c4c(c3C2=O)C2=NC3(CCN(CC(C)C)CC3)NC2=C(NC(=O)/C(C)=C\C=C\[C@H](C)[C@H](O)[C@@H](C)[C@@H](O)[C@@H](C)[C@H](OC(=O)CC(=O)N2CCN(C3CCN(C)CC3)CC2)[C@@H]1C)C4=O` [Compound 112]: the MIC in experiment [1] (HUMC1 strain, RPMI + 10% FCS) is 0.004 µg/mL; in experiment [2], 0.125 µg/mL (≈ 0.118 µM); in experiment [3] (setting [5]), 1 µg/mL.

In the case of `CO[C@H]1/C=C/O[C@@]2(C)Oc3c(C)c(O)c4c(c3C2=O)C2=NC3(CCN(CC(C)C)CC3)NC2=C(NC(=O)/C(C)=C\C=C\[C@H](C)[C@H](O)[C@@H](C)[C@@H](O)[C@@H](C)[C@H](OC(=O)CC(=O)N2CCN(CCN(C)C)CC2)[C@@H]1C)C4=O` [Compound 113], the minimum inhibitory concentration (MIC) in experiment [1] (HUMC1 strain, RPMI + 10% FCS) turned out to be 0.06 µg/mL; in experiment [2] it was 0.06 µg/mL (≈ 0.0582 µM); in experiment [3] (setting [5]), 0.5 µg/mL.

As to `CO[C@H]1/C=C/O[C@@]2(C)Oc3c(C)c(O)c4c(c3C2=O)C2=NC3(CCN(CC(C)C)CC3)NC2=C(NC(=O)/C(C)=C\C=C\[C@H](C)[C@H](O)[C@@H](C)[C@@H](O)[C@@H](C)[C@H](OC(=O)CC(=O)N2CCN(CCN3CCCCC3)CC2)[C@@H]1C)C4=O` [Compound 114], the MIC in experiment [1] (HUMC1 strain, RPMI + 10% FCS) is not above 0.002 µg/mL; in experiment [2], 0.125 µg/mL (≈ 0.117 µM); in experiment [3] (setting [5]) it was 0.5 µg/mL.

As for `CO[C@H]1/C=C/O[C@@]2(C)Oc3c(C)c(O)c4c(c3C2=O)C2=NC3(CCN(CC(C)C)CC3)NC2=C(NC(=O)/C(C)=C\C=C\[C@H](C)[C@H](O)[C@@H](C)[C@@H](O)[C@@H](C)[C@H](OC(=O)CC(=O)N2CCN(CCN3CCOCC3)CC2)[C@@H]1C)C4=O` [Compound 115], the MIC is not above 0.002 µg/mL in experiment [1] (HUMC1 strain, RPMI + 10% FCS); 0.06 µg/mL (≈ 0.056 µM) in experiment [2]; 0.5 µg/mL in experiment [3] (setting [5]).

Consider `CO[C@H]1/C=C/O[C@@]2(C)Oc3c(C)c(O)c4c(c3C2=O)C2=NC3(CCN(CC(C)C)CC3)NC2=C(NC(=O)/C(C)=C\C=C\[C@H](C)[C@H](O)[C@@H](C)[C@@H](O)[C@@H](C)[C@H](OC(=O)CC(=O)N2CCCN(c3ccncc3)CC2)[C@@H]1C)C4=O` [Compound 121], for which the minimal inhibitory concentration (MIC) is 0.125 µg/mL with M. kansasii (ATCC 12478) (setting [6]); 2 µg/mL with M. avium (ATCC 25291) (setting [4]); not above 0.002 µg/mL in experiment [1] (HUMC1 strain, RPMI + 10% FCS); 0.125 µg/mL (≈ 0.119 µM) in experiment [2]; 0.25 µg/mL in experiment [3] (setting [5]).

(Values after patent US20250051356A1, “RIFABUTIN ANALOGS FOR THE TREATMENT OF DISEASE” (priority 2021, published 2025).)
